Patent US20240043928A1, “BIOMARKERS FOR MYELODYSPLASTIC SYNDROME (MDS) AND METHODS OF USING THE SAME” (Eisai R&D Management Co., Ltd., priority 2020, published 2024)

Assay: Phase I study NCT02841540: treatment-related adverse events and dose-limiting toxicities
Assay type: in vivo, human
Text: Patients were enrolled using a conventional 3+3 dose escalation phase I design, with escalations based on a modified Fibonacci sequence scheme (Storer Biometrics. 1989;45(3):925-937). Dose escalations continued until a dose level at which ≥2 patients of the 3-6 enrolled experienced a dose-limiting toxicity (DLT). Maximally tolerated dose (MTD) was defined as the highest dose at which no more than 1 out of 6 patients experienced a DLT. DLTs were defined as any of the following: any Grade 3 or greater study drug-related non-hematologic toxicity except for Grade 3 nausea, vomiting, fatigue, or diarrhea that resolved to Grade 1 or less within 1 week; failure to administer at least 70% of the protocol-specific dose; or prolonged myelosuppression with the persistence of Grade 4 cytopenia in the absence of persistent leukemia or blast increase 21 or more days after suspending dosing. DLTs were assessed during the first 28 days using National Cancer Institute (NCI) Common Toxicity Criteria for Adverse Events (CTCAE) version 4.03.
The primary endpoints measured included occurrence of DLTs, the type and frequency of treatment-emergent adverse events (TEAEs), and serious adverse events (SAEs). Key secondary endpoints included drug pharmacokinetics (PK) and preliminary antitumor activity, such as the overall response rate (ORR), effect of drug therapy on transfusion requirements, and overall survival (OS). Biomarker analyses and drug pharmacodynamics (PD) were included as exploratory endpoints. […] In addition, a second schedule (Schedule II) of 21 days on therapy and a rest of 7 days without therapy was explored. […] However, when limited clinical activity was observed on Schedule I, Schedule II was introduced to test whether more prolonged spliceosome modulation would lead to higher clinical activity. Each treatment cycle was 28 days in length. Patients could continue treatment until disease progression or development of unacceptable toxicity.
Eligibility criteria included normal vitamin A levels and visual acuity that corrected to 20/40 unless a cataract was present. Ophthalmologic evaluation, including fundoscopic imaging and visual evoked potentials, was performed during study screening and periodically throughout the duration of the trial.

[1] = Schedule I, 1, 2, 3.5, & 5 mg QD, N = 25

## C/C(=C\C=C\[C@@H](C)c1ccccn1)[C@H]1OC(=O)C[C@H](O)CC[C@@](C)(O)[C@@H](OC(=O)N2CCN(C)CC2)/C=C/[C@@H]1C [Compound 1, (2S,3S,4E,6S,7R,10R)-7,10-dihydroxy-3,7-dimethyl-12-oxo-2-[(2E,4E,6R)-6-(pyridine-2-yl)hepta-2,4-dien-2-yl]oxacyclododec-4-en-6-yl-4-methylpiperazine-1-carboxylate]
7 mg, Schedule I, first week of study therapy
  adverse event in a patient with SF3B1-mutant lower-risk MDS: developed pancytopenia and marrow aplasia
9 of the 12 subjects
  male share of subjects who reported grade 3 treatment related AEs: 75%
45 of the 63 subjects
  male share of subjects reporting treatment related AEs (all grades): 71%
Schedule I
  MTD (initially defined, not formally confirmed): 30 mg
  recommended QD dose: 30 mg per day
Schedule I, 1 mg-40 mg
  dose dependency in the rate of treatment related TEAEs (all grades): no obvious dose dependency
Schedule I, 7 mg QD, N = 14
  Any TEAE (treatment-related, all grades): 11 (79) n (%)
  Diarrhea (treatment-related TEAE, all grades): 4 (29) n (%)
  Fatigue (treatment-related TEAE, all grades): 2 (14) n (%)
  Nausea (treatment-related TEAE, all grades): 4 (29) n (%)
  Vomiting (treatment-related TEAE, all grades): 2 (14) n (%)
Schedule I, 7 mg, lower-risk MDS and SF3B1 mutation
  patients with DLT marrow aplasia: 1 patient
Schedule I, 10 mg QD, N = 7
  Any TEAE (treatment-related, all grades): 3 (43) n (%)
  Diarrhea (treatment-related TEAE, all grades): 2 (29) n (%)
  Fatigue (treatment-related TEAE, all grades): 1 (14) n (%)
  Nausea (treatment-related TEAE, all grades): 2 (29) n (%)
  Vomiting (treatment-related TEAE, all grades): 2 (29) n (%)
Schedule I, 14 mg QD, N = 5
  Any TEAE (treatment-related, all grades): 5 (100) n (%)
  Diarrhea (treatment-related TEAE, all grades): 5 (100) n (%)
  Fatigue (treatment-related TEAE, all grades): 0 n (%)
  Nausea (treatment-related TEAE, all grades): 1 (20) n (%)
  Vomiting (treatment-related TEAE, all grades): 1 (20) n (%)
Schedule I, 20 mg QD, N = 4
  Any TEAE (treatment-related, all grades): 3 (75) n (%)
  Diarrhea (treatment-related TEAE, all grades): 1 (25) n (%)
  Fatigue (treatment-related TEAE, all grades): 2 (50) n (%)
  Nausea (treatment-related TEAE, all grades): 2 (50) n (%)
  Vomiting (treatment-related TEAE, all grades): 0 n (%)
Schedule I, 30 mg QD, N = 4
  Any TEAE (treatment-related, all grades): 4 (100) n (%)
  Diarrhea (treatment-related TEAE, all grades): 3 (75) n (%)
  Fatigue (treatment-related TEAE, all grades): 1 (25) n (%)
  Nausea (treatment-related TEAE, all grades): 3 (75) n (%)
  Vomiting (treatment-related TEAE, all grades): 0 n (%)
Schedule I, 40 mg
  patients with DLT prolonged QTcF >500 msec (investigator-assessed): 2 out of 6
  subjects reporting grade 3 AEs: 3 of 6
Schedule I, 40 mg QD, N = 6
  Any TEAE (treatment-related, all grades): 5 (83) n (%)
  Diarrhea (treatment-related TEAE, all grades): 5 (83) n (%)
  Fatigue (treatment-related TEAE, all grades): 2 (33) n (%)
  Nausea (treatment-related TEAE, all grades): 3 (50) n (%)
  Vomiting (treatment-related TEAE, all grades): 3 (50) n (%)
Schedule I, 40 mg, N=6
  subjects reporting a treatment related TEAE: 83%
[1]
  Any TEAE (treatment-related, all grades): 19 (76) n (%)
  Diarrhea (treatment-related TEAE, all grades): 7 (28) n (%)
  Fatigue (treatment-related TEAE, all grades): 3 (12) n (%)
  Nausea (treatment-related TEAE, all grades): 3 (12) n (%)
  Vomiting (treatment-related TEAE, all grades): 1 (4) n (%)
Schedule I, N = 65
  Anemia (Grade 3 or 4 treatment-related TEAE): 4 (6) n (%)
  ECG QTcF prolonged (Grade 3 or 4 treatment-related TEAE): 2 (3) n (%)
  Fatigue (Grade 3 or 4 treatment-related TEAE): 2 (3) n (%)
  Hypophosphatemia (Grade 3 or 4 treatment-related TEAE): 0 n (%)
  Nausea (Grade 3 or 4 treatment-related TEAE): 0 n (%)
  Platelet count decreased (Grade 3 or 4 treatment-related TEAE): 2 (3) n (%)
  Sinus bradycardia (Grade 3 or 4 treatment-related TEAE): 0 n (%)
Schedule I, Total, N = 65
  Any TEAE (treatment-related, all grades): 50 (77) n (%)
  Diarrhea (treatment-related TEAE, all grades): 27 (42) n (%)
  Fatigue (treatment-related TEAE, all grades): 11 (17) n (%)
  Nausea (treatment-related TEAE, all grades): 18 (28) n (%)
  Vomiting (treatment-related TEAE, all grades): 9 (14) n (%)
Schedule I, all patients
  diarrhea, treatment-related TEAE: 42%
  fatigue, treatment-related TEAE: 17%
  nausea, treatment-related TEAE: 28%
  vomiting, treatment-related TEAE: 14%
Schedule I, lowest combined dose level (1, 2, 3.5 and 5 mg, N=25)
  subjects reporting a treatment related TEAE: 76%
Schedule II
  MTD (initially defined, not formally confirmed): 14 mg
  recommended QD dose: 14 mg per day
